In patent US20220177819A1, “MICROFLUIDIC SYSTEM FOR INTRACELLULAR DELIVERY OF MATERIALS AND METHOD THEREFOR” (MxT BIOTECH, priority 2019, published 2022) one finds cancer cells killed data, which are given here for one compound.

Each structure is given as a SMILES string.

This test concerns MDA-MB-231 cells. Kind of test: DOX cytotoxicity after delivery of DOX-loaded MSNs, trypan blue exclusion. Type of test: cell-based. Conditions: DOX loaded into MSNs delivered by the microfluidic system, after 6 hours. The method, then:
In the experiment, doxorubicin (DOX), an anticancer drug, was loaded into MSNs and the MSNs were delivered into MDA-MB-231 cells.
Referring to FIG. 31, DOX cytotoxicity to MDA-MB-231 cells was measured by the trypan blue exclusion method, and it can be seen that approximately 85% of cancer cells were killed after 6 hours.

With `COc1cccc2c1C(=O)c1c(O)c3c(c(O)c1C2=O)C[C@@](O)(C(=O)CO)C[C@@H]3O[C@H]1C[C@H](N)[C@H](O)[C@H](C)O1` [DOX, doxorubicin], the cancer cells killed entry is reported as “approximately 85%”.
